Source: patent US20250032524A1, “BROAD SPECTRUM AMINOGLYCOSIDES AND USES THEREOF” (REVAGENIX, INC., priority 2022, published 2025)
Read-outs that look alike come from different tables or passages of the source.

Experiments:
Format in all cases: cell-based
[1] = test system: all sets of organisms tested (SENTRY clinical isolates); experiment: Antibacterial surveillance, overall statement; details: all sets of organisms tested (Table 3); read-out: MIC50,90 values
Experimental: (§1) Minimum inhibitory concentrations for representative example compounds herein were determined by a broth microdilution method in accordance with the Clinical and Laboratory Standards Institute (CLSI) guidelines. In brief, organism suspensions were adjusted to a 0.5 McFarland standard to yield a final inoculum between 3×10^5 and 7×10^5 colony-forming units (CFU)/mL. The inoculum was prepared by suspension of a colony from an agar plate that was prepared the previous day. Compound dilutions and inoculum were prepared in sterile, cation adjusted Mueller-Hinton Broth (Beckton Dickinson).
(§2) Bacteria were suspended in sterile saline and added to each assay plate to obtain a final concentration of 5×10^5 CFU/mL. An inoculum volume of 100 μL was added to wells containing 100 μL of broth with 2-fold serial dilutions of the test compound. All inoculated microdilution trays were incubated in ambient air at 35° C. for 18-24 hours. Following incubation, the lowest concentration of the compound that prevented visible growth (OD 600 nm<0.05) is recorded was the MIC. […] Performance of the assay was monitored by the use of laboratory quality-control strains and a standard compound with a defined MIC spectrum (neomycin), in accordance with CLSI guidelines.
Several compounds of the disclosure (Compound 1, 2, and 3) were further evaluated against several hundred bacterial isolates (isolated in the United States and Europe, 1:1) selected from the SENTRY Antimicrobial Surveillance Program (JMI Laboratories, North Liberty, Iowa). The set of clinical isolates included 300 randomly selected Enterobacterales, 103 randomly selected P. aeruginosa, 100 randomly selected A. baumannii-calcoaceticus, 20 randomly selected Methicillin-sensitive S. aureus (MSSA), and 30 randomly selected Methicillin-resistant S. aureus (MRSA). In addition, 101 Enterobacterales and 50 P. aeruginosa isolates with genetically defined mechanisms of aminoglycoside resistance were included. […]

[2] = test system: Methicillin-resistant S. aureus (MRSA); experiment: Antibacterial surveillance of clinical isolates (MIC50/90); details: Staphylococcus aureus, MRSA, 30 isolates
Experimental: as §1, §2
(§3) Several compounds of the disclosure (Compound 1, 2, and 3) were further evaluated against several hundred bacterial isolates (isolated in the United States and Europe, 1:1) selected from the SENTRY Antimicrobial Surveillance Program (JMI Laboratories, North Liberty, Iowa). The set of clinical isolates included 300 randomly selected Enterobacterales, 103 randomly selected P. aeruginosa, 100 randomly selected A. baumannii-calcoaceticus, 20 randomly selected Methicillin-sensitive S. aureus (MSSA), and 30 randomly selected Methicillin-resistant S. aureus (MRSA). In addition, 101 Enterobacterales and 50 P. aeruginosa isolates with genetically defined mechanisms of aminoglycoside resistance were included. The MIC values at which ≥50% (MIC50) and ≥90% (MIC90) of isolates within a given set are inhibited were determined for each compound against each set of organisms.

P. aeruginosa [3] = experiment: as above; details: Pseudomonas aeruginosa, 103 isolates
Experimental: as §1, §2, §3

Enterobacterales = experiment: as above
Experimental: as §1, §2, §3

[4] = test system: A. baumannii-calcoaceticus; experiment: as above; details: 100 isolates
Experimental: as §1, §2, §3

[5] = test system: AG-resistant Enterobacterales; experiment: as above
Experimental: as §1, §2, §3

[6] = test system: Methicillin-sensitive S. aureus (MSSA); experiment: as above; details: Staphylococcus aureus, MSSA, 20 isolates
Experimental: as §1, §2, §3

[7] = test system: AG-resistant P. aeruginosa; experiment: as above; details: Pseudomonas aeruginosa, 50 isolates with defined aminoglycoside resistance
Experimental: as §1, §2, §3

P. aeruginosa [8] = experiment: MIC broth microdilution (CLSI); details: Pseudomonas aeruginosa
In short: (§4)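 First, a colony from the previous day's agar plate is suspended in saline to 0.5 McFarland. Next, this is added to cation-adjusted Mueller-Hinton broth containing 2-fold serial compound dilutions, giving 5×10^5 CFU/mL. Trays then incubate 18-24 hours at 35° C.; MIC is the lowest concentration without visible growth (OD 600 nm<0.05).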

S. aureus = experiment: MIC broth microdilution (CLSI); details: for MIC: Staphylococcus aureus
In short: as §4

E. cloacae = experiment: MIC broth microdilution (CLSI); details: Enterobacter cloacae; strain AECL1089, MDR Clinical isolate (CDC CRE panel), CDC AR Bank 0154
In short: as §4

E. coli = experiment: MIC broth microdilution (CLSI); details: Escherichia coli
In short: as §4

K. pneumoniae = experiment: MIC broth microdilution (CLSI)
In short: as §4

A. baumannii = experiment: MIC broth microdilution (CLSI); details: Acinetobacter baumannii
In short: as §4

[9] = test system: clinical isolates of multi-drug resistant bacterial pathogens including A. baumannii, MRSA, P. aeruginosa, and CRE; experiment: MIC secondary panel, overall statement; details: read-out: minimum inhibitory concentration (MIC) values
Experimental: as §1, §2
Several compounds of the disclosure (Compounds 1, 2, 3, and 6) were further evaluated against a secondary panel of clinical isolates of multi-drug resistant bacterial pathogens including A. baumannii, methicillin-resistant Staphylococcus aureus (MRSA), P. aeruginosa, and carbapenem-resistant Enterobacteriaceae (CRE).

NCC[C@H](O)C(=O)N[C@@H]1[C@@H](O)[C@H](N)[C@@H](O[C@H]2O[C@H](CN)CC[C@H]2N)[C@H](O[C@@H]2O[C@H](CO)[C@@H](O[C@H]3O[C@@H](CN)[C@@H](O)[C@H](O)[C@H]3N)[C@H]2O)[C@H]1O [Compound 2, (S)-4-amino-N-((1R,2S,3S,4R,5R,6S)-3-amino-5-(((2S,3R,4S,5R)-4-(((2R,3R,4R,5S,6S)-3-amino-6-(aminomethyl)-4,5-dihydroxytetrahydro-2H-pyran-2-yl)oxy)-3-hydroxy-5-(hydroxymethyl)tetrahydrofuran-2-yl)oxy)-4-(((2R,3R,6S)-3-amino-6-(aminomethyl)tetrahydro-2H-pyran-2-yl)oxy)-2,6-dihydroxycyclohexyl)-2-hydroxybutanamide]
MIC50 [1]: ≤ 16 µg/mL
MIC50 ([2]; read-out: MIC50): < 16 µg/mL
MIC90 ([2]; read-out: MIC90): < 16 µg/mL
MIC50 (P. aeruginosa [3]; read-out: MIC50): < 16 µg/mL
MIC90 (P. aeruginosa [3]; read-out: MIC90): < 16 µg/mL
MIC50 (Enterobacterales): < 16 µg/mL
MIC90 (Enterobacterales): < 16 µg/mL
MIC50 ([4]; read-out: MIC50): < 16 µg/mL
MIC90 ([4]; read-out: MIC90): < 16 µg/mL
MIC50 [5]: < 16 µg/mL
MIC90 [5]: < 16 µg/mL
MIC50 ([6]; read-out: MIC50): < 16 µg/mL
MIC90 ([6]; read-out: MIC90): < 16 µg/mL
MIC50 ([7]; read-out: MIC50): < 16 µg/mL
MIC90 ([7]; read-out: MIC90): < 16 µg/mL
MIC (P. aeruginosa [8]; read-out: Activity (MIC), strain NPAE0006, Efflux KO, Aph(3')-IIb): < 16 µg/mL
MIC (P. aeruginosa [8]; read-out: Activity (MIC), strain NPAE0010, MexXY over-expressed, Aph(3')-IIb): < 16 µg/mL
MIC (P. aeruginosa [8]; read-out: Activity (MIC), strain NPAE1288, MDR Clinical isolate): < 16 µg/mL
MIC (P. aeruginosa [8]; read-out: Activity (MIC), strain NPAE1293, MDR Clinical isolate): < 16 µg/mL
MIC (P. aeruginosa [8]; read-out: Activity (MIC), strain NPAE1299, MDR Clinical isolate): < 16 µg/mL
MIC (P. aeruginosa [8]; read-out: Activity (MIC), strain NPAE1302, MDR Clinical isolate): < 16 µg/mL
MIC (P. aeruginosa [8]; read-out: Activity (MIC), strain NPAE1303, MDR Clinical isolate): < 16 µg/mL
MIC (P. aeruginosa [8]; read-out: Activity (MIC), strain NPAE1308, MDR Clinical isolate): < 16 µg/mL
MIC (P. aeruginosa [8]; read-out: Activity (MIC), strain NPAE1310, MDR Clinical isolate): < 16 µg/mL
MIC (P. aeruginosa [8]; read-out: Activity (MIC), strain NPAE1313, MDR Clinical isolate): < 16 µg/mL
MIC (P. aeruginosa [8]; read-out: Activity (MIC), strain NPAE1316, MDR Clinical isolate): < 16 µg/mL
MIC (P. aeruginosa [8]; read-out: Activity (MIC), strain NPAE1323, MDR Clinical isolate): < 16 µg/mL
MIC (P. aeruginosa [8]; strain NPAE0001, WT Aph(3')-IIb, QC, read-out: Activity (MIC)): < 16 µg/mL
MIC (P. aeruginosa [8]; strain NPAE0002, WT Aph(3')-IIb, read-out: Activity (MIC)): < 16 µg/mL
MIC (P. aeruginosa [8]; strain NPAE0359, aph(3')-IIb KO (tetR), read-out: Activity (MIC)): < 16 µg/mL
MIC (S. aureus; ATCC29213, strain NSAU001, wild-type, QC, ATCC 29213): < 16 µg/mL
MIC (S. aureus; strain NSAU1004, MDR Clinical isolate): < 16 µg/mL
Activity (MIC) (S. aureus; strain NSAU1015, MDR Clinical isolate): + (MIC threshold for positive activity (+) is ≤16 μg/mL)
Activity (MIC) (S. aureus; strain NSAU1023, MDR Clinical isolate): + (MIC threshold for positive activity (+) is ≤16 μg/mL)
Activity (MIC) (S. aureus; strain NSAU1063, MDR Clinical isolate): + (MIC threshold for positive activity (+) is ≤16 μg/mL)
MIC (E. cloacae): < 16 µg/mL
MIC (E. coli; read-out: Activity (MIC), strain AECO1225, MDR Clinical isolate (CDC CRE panel), CDC AR Bank 0118): < 16 µg/mL
MIC (E. coli; read-out: Activity (MIC), strain AECO1226, MDR Clinical isolate (CDC CRE panel), CDC AR Bank 0119): < 16 µg/mL
MIC (E. coli; read-out: Activity (MIC), strain AECO1227, MDR Clinical isolate (CDC CRE panel), CDC AR Bank 0128): < 16 µg/mL
MIC (E. coli; read-out: Activity (MIC), strain NECO0003, ΔtolC): < 16 µg/mL
MIC (E. coli; read-out: Activity (MIC), strain NECO0245, ArmA): < 16 µg/mL
MIC (E. coli; strain NECO0001, WT QC, read-out: Activity (MIC)): < 16 µg/mL
MIC (E. coli; strain NECO0002, WT, read-out: Activity (MIC)): < 16 µg/mL
MIC (E. coli; strain NECO0243, empty vector, read-out: Activity (MIC)): < 16 µg/mL
MIC (E. coli; strain NECO0244, AAC(6')-Ib, read-out: Activity (MIC)): < 16 µg/mL
MIC (E. coli; strain NECO0289, APH(3')-Ia, read-out: Activity (MIC)): < 16 µg/mL
MIC (E. coli; strain NECO0302, AAC(3)-IIa, read-out: Activity (MIC)): < 16 µg/mL
MIC (E. coli; strain NECO0350, AAC(2')-I, read-out: Activity (MIC)): < 16 µg/mL
MIC (E. coli; strain NECO0359, ANT(4')-Ia, read-out: Activity (MIC)): < 16 µg/mL
MIC (K. pneumoniae; Klebsiella pneumoniae, strain AKPN1246, MDR Clinical isolate (CDC CRE panel), CDC AR Bank 0139): < 16 µg/mL
Activity (MIC) (K. pneumoniae; strain AKPN1250, MDR Clinical isolate (CDC CRE panel), CDC AR Bank 0143): + (MIC threshold for positive activity (+) is ≤16 μg/mL)
Activity (MIC) (K. pneumoniae; strain AKPN1253, MDR Clinical isolate (CDC CRE panel), CDC AR Bank 0148): + (MIC threshold for positive activity (+) is ≤16 μg/mL)
Activity (MIC) (K. pneumoniae; strain AKPN1255, MDR Clinical isolate (CDC CRE panel), CDC AR Bank 0153): + (MIC threshold for positive activity (+) is ≤16 μg/mL)
MIC (A. baumannii; read-out: Activity (MIC), strain NABA0007, ΔadeJK efflux): < 16 µg/mL
MIC (A. baumannii; read-out: Activity (MIC), strain NABA1427, MDR Clinical isolate): < 16 µg/mL
MIC (A. baumannii; read-out: Activity (MIC), strain NABA1433, MDR Clinical isolate): < 16 µg/mL
MIC (A. baumannii; read-out: Activity (MIC), strain NABA1434, MDR Clinical isolate): < 16 µg/mL
MIC (A. baumannii; read-out: Activity (MIC), strain NABA1436, MDR Clinical isolate): < 16 µg/mL
MIC (A. baumannii; read-out: Activity (MIC), strain NABA1437, MDR Clinical isolate): < 16 µg/mL
MIC (A. baumannii; read-out: Activity (MIC), strain NABA1438, MDR Clinical isolate): < 16 µg/mL
MIC (A. baumannii; read-out: Activity (MIC), strain NABA1439, MDR Clinical isolate): < 16 µg/mL
MIC (A. baumannii; read-out: Activity (MIC), strain NABA1448, MDR Clinical isolate): < 16 µg/mL
MIC (A. baumannii; read-out: Activity (MIC), strain NABA1449, MDR Clinical isolate): < 16 µg/mL
MIC (A. baumannii; read-out: Activity (MIC), strain NABA1450, MDR Clinical isolate): < 16 µg/mL
MIC (A. baumannii; strain NABA0006, WT parent, read-out: Activity (MIC)): < 16 µg/mL
MIC (A. baumannii; strain NABA0020, AME negative strain, read-out: Activity (MIC)): < 16 µg/mL
MIC [9]: ≤ 16 µg/mL
